Here are results for 5 molecules from US20250171511A1, “ANTIVIRAL PEPTIDES AND METHODS OF USE THEREOF” (Versitech Limited, priority 2021, published 2025).

Data set [1] in a line: Solubility of peptide in water. It is filed as physicochemical. Here is the method:
H23, H26, H30, 2H30, and 4H30 shown in Table 1 were synthesized by ChinaPeptide (Shanghai, China). All peptides were dissolved in water. The solubility of peptide in water is greater than 5 mg ml^−1. The purity of all peptides was >80%. The purity and mass of each peptide were verified by HPLC and mass spectrometry.

Data set [2] concerns spike-ACE2 mediated fusion. It is filed as cell-based. The conditions noted are these: endocytosis pathway.
Another data set relates to VeroE6 cells. In words: Endosomal acidification assay. In kind it is cell-based. How it is done:
Endosomal acidification was detected with a pH-sensitive dye (pHrodo green dextran, Invitrogen, Cat^# P35365) according to the manufacturer's instructions as previously described but with slight modification (H. Zhao, et al., Nat Commun, 9 (2018) 2358). First, VeroE6 cells were treated with DMEM, 4H30 (25.0 μg ml^−1), or bafilomycin A1 (50.0 nM) at 4° C. for 15 min. Second, VeroE6 cells were added with 100 μg ml^−1 of pH-sensitive dye and DAPI and then incubated at 4° C. for 15 min. Before taking images, cells were further incubated at 37° C. for 15 min and then cells were washed twice with PBS. Finally, PBS was added to cells and images were taken immediately with confocal microscope (Carl Zeiss LSM 800, Germany).

For data set [3], the target named is SARS-CoV-2 spike (SARS-CoV-2), P0DTC2. In words: cell-based or functional assay.

Where a SMILES comes first, the peptide text is derived from it.

Consider `CC[C@H](C)[C@H](NC(=O)[C@H](CCC(N)=O)NC(=O)[C@H](CCCCN)NC(=O)[C@H](Cc1ccc(O)cc1)NC(=O)[C@H](CCCNC(=N)N)NC(=O)[C@H](CCCNC(=N)N)NC(=O)[C@@H]1CCCN1C(=O)[C@H](CS)NC(=O)[C@H](Cc1ccccc1)NC(=O)[C@@H](NC(=O)[C@@H]1CCCN1C(=O)[C@H](Cc1c[nH]cn1)NC(=O)[C@@H](N)CS)C(C)C)C(=O)NCC(=O)N[C@H](C(=O)N[C@@H](CS)C(=O)NCC(=O)N[C@@H](CC(C)C)C(=O)N1CCC[C@H]1C(=O)NCC(=O)N[C@H](C(=O)N[C@@H](CCCCN)C(=O)N[C@@H](CS)C(=O)N[C@@H](CS)C(=O)N[C@@H](CCCCN)C(=O)N[C@@H](CCCCN)C(=O)O)[C@@H](C)O)[C@@H](C)O` [Peptide H26] (H-CHPVFCPRRYKQIGTCGLPGTKCCKK-OH; N-terminus and C-terminus assumed), for which the solubility (commonly how much of the substance goes into solution per volume) in data set [1] is above 5000 µg/mL. Consider `CC[C@H](C)[C@H](NC(=O)[C@H](CCC(N)=O)NC(=O)[C@H](CCCCN)NC(=O)[C@H](Cc1ccc(O)cc1)NC(=O)[C@H](CCCNC(=N)N)NC(=O)[C@H](CCCNC(=N)N)NC(=O)[C@@H]1CCCN1C(=O)[C@H](CS)NC(=O)[C@H](Cc1ccccc1)NC(=O)[C@@H](NC(=O)[C@@H]1CCCN1C(=O)[C@H](Cc1c[nH]cn1)NC(=O)[C@@H](N)CS)C(C)C)C(=O)NCC(=O)N[C@H](C(=O)N[C@@H](CS)C(=O)NCC(=O)N[C@@H](CC(C)C)C(=O)N1CCC[C@H]1C(=O)NCC(=O)N[C@H](C(=O)N[C@@H](CCCCN)C(=O)N[C@@H](CS)C(=O)O)[C@@H](C)O)[C@@H](C)O` [Peptide H23] (H-CHPVFCPRRYKQIGTCGLPGTKC-OH; N-terminus and C-terminus assumed), for which the solubility in data set [1] was above 5000 µg/mL. In the case of `CO/C1=C\C(C)=C\[C@@H](C)[C@@H](O)[C@@H](C)C/C(C)=C/C=C/[C@H](OC)[C@@H]([C@@H](C)[C@@H](O)[C@H](C)[C@@]2(O)C[C@@H](O)[C@H](C)[C@@H](C(C)C)O2)OC1=O` [bafilomycin Al, bafilomycin A1, reference compound], in data set [2], the “spike-ACE2 mediated cell fusion” value is “inhibiting endosomal acidification and cell fusion”. Further, the endosomal acidification result with VeroE6 cells is “inhibiting endosomal acidification”. The molecule `CC[C@H](C)[C@H](NC(=O)[C@H](C)NC(=O)CN)C(=O)N[C@@H](CS)C(=O)N[C@@H](Cc1c[nH]cn1)C(=O)N1CCC[C@H]1C(=O)N[C@H](C(=O)N[C@@H](Cc1ccccc1)C(=O)N[C@@H](CS)C(=O)N1CCC[C@H]1C(=O)N[C@@H](CCCNC(=N)N)C(=O)N[C@@H](CCCNC(=N)N)C(=O)N[C@@H](Cc1ccc(O)cc1)C(=O)N[C@@H](CCCCN)C(=O)N[C@@H](CCC(N)=O)C(=O)N[C@H](C(=O)NCC(=O)N[C@H](C(=O)N[C@@H](CS)C(=O)NCC(=O)N[C@@H](CC(C)C)C(=O)N1CCC[C@H]1C(=O)NCC(=O)N[C@H](C(=O)N[C@@H](CCCCN)C(=O)N[C@@H](CS)C(=O)N[C@@H](CS)C(=O)N[C@@H](CCCCN)C(=O)N[C@@H](CCCCN)C(=O)N1CCC[C@H]1C(=O)O)[C@@H](C)O)[C@@H](C)O)[C@@H](C)CC)C(C)C` [Peptide H30] (H-GAICHPVFCPRRYKQIGTCGLPGTKCCKKP-OH; N-terminus and C-terminus assumed) showed a solubility in data set [1] above 5000 µg/mL. GAICHPVFCPRRYKQIGTCGLPGTKCCKKP (modifications not checked) [four branched H30 (4H30)] came in with an IC50 of inhibition of SARS-CoV-2 infection, plaque reduction assay in PBS in data set [3] of 0.59 µg/mL.
